Reference: patent US20230295212A1 (ROME Therapeutics, Inc., priority 2022, published 2023)
Structures can show the parent of a compound that is named as a salt.

Tests used:
[1] = biological target: T1, HERV-K reverse transcriptase (Homo sapiens, UniProt V9H0F6); experiment: Homogeneous time-resolved fluorescence (HTRF) HERV-K RT assay; format: biochemical; conditions: triphosphate analogs, HERV-K enzyme 16 ng/well, 25° C. 30 minutes
T1 construct: fused on or other part: C-terminal 8xHis tag
Procedure: Exemplary triphosphate analogs were tested for ability to inhibit HERV-K reverse transcriptase using a homogeneous time-resolved fluorescence (HTRF) assay. Assay procedures and results are described below.
The HERV-K reverse transcriptase homogeneous time-resolved fluorescence (HTRF) assay was performed in a 384-well format with HERV-K reverse transcriptase (2-596)-8His protein. Baculoviruses were created using Bac-to-Bac technology (Invitrogen). pFastflac donor plasmids containing HERV-K reverse transcriptase sequence (NCBI GenBank number AAC63291.1, J. Virology (1999) Vol. 73, No. 3, pp. 2365-2375) were transformed into DH10 Bac cells following the manufacturer's instructions. Recombinant bacmids were then isolated clonally and transfected into SF9 cells with lipofectin. HERV-K reverse transcriptase was expressed in the SF9 insect cells and then purified using immobilized metal affinity chromatography (IMAC) followed by size-exclusion chromatography (SEC).
Test compound was serially diluted in DMSO and further diluted in the assay buffer (50 mM Tris-HCl, 50 mM KCl, 10 mM MgCl2, 10 mM DTT, pH 8.1) to achieve a final DMSO concentration of 1%. The serially diluted compound was mixed with 16 ng/well of HERV-K enzyme, 5 nM of pre-annealed template/biotin-primer pair (synthesized at Geneway Biotechnology), 10 nM of Fluorescein-12-dCTP fluorescent probe (PerkinElmer), and 1 mM dGTP, dATP, and DTTP (ThermoFisher). The template/biotin-primer sequences were:
After incubating at 25° C. for 30 minutes, the detection reagent 20 mM EDTA with streptavidin-terbium cryptate (Cisbio Bioassay) in the PPI buffer (Cisbio Bioassay) was added, and the mixture was incubated at 25° C. for 60 minutes. At the end of the incubation, fluorescence was read at ex/em=337/485 nm and ex/em=337/520 nm on an Envision 2104 plate reader (PerkinElmer). The fluorescence ratio at 520/485 nm was used for the calculation. […] IC50 values were calculated by fitting the compound dose inhibition curve with a 4-parameter non-linear regression equation.

human telomerase = biological target: T2, human telomerase (Homo sapiens, UniProt O14746); experiment: Human telomerase PCR ELISA assay (MCF-7 cell lysate); format: biochemical; conditions: triphosphates, 0.2 μg MCF-7 lysate
T2 construct: endogenous in cells; host or cells: MCF-7 cell lysate
Procedure: Exemplary compounds were tested for ability to inhibit human telomerase using a PCR ELISA assay. Off-target inhibition of human telomerase can result in undesired cellular toxicity, e.g., triggering replicative senescence and/or apoptotic cell death. Assay procedures and results are described below.
The human telomerase assay was performed with telomerase in the MCF-7 cell lysate using the Telo TAGGG Telomerase PCR ELISA^Plus kit (Roche) per manufacturer's instruction. MCF-7 cells were lysed in the lysis buffer and the supernatant was used for the assay. Test compound was serially diluted in water and mixed with 0.2 μg of MCF-7 lysate in PCR tubes and incubate at room temperature for 15 minutes. The PCR reaction mixture was then added, the tubes were transferred to a thermal cycler (Analytikjena) and the telomerase elongation reaction was performed for 30 minutes followed by 30 PCR cycles with the following protocol:
Mix 2.5 μL of PCR amplification product from above to 10 μl of denature reagent to each well of a PCR plate and incubate at room temperature for 10 minutes. Add in 100 μl of hybridization buffer T and mix well. Transfer 100 μl per well of the reaction mixture to the precoated MP module, incubate at 37° C. for 2 hours. Remove the hybridization solution, wash three times with the wash buffer, add anti-DIG-HRP solution, incubate at room temperature for 30 minutes. Remove the anti-DIG-HRP solution and wash five times with the wash buffer. Add TMB substrate and incubate at room temperature for 10 minutes. Measure the absorbance at 450 nm using Envision (PerkinElmer).

T1 sequence (V9H0F6 entry or part of it): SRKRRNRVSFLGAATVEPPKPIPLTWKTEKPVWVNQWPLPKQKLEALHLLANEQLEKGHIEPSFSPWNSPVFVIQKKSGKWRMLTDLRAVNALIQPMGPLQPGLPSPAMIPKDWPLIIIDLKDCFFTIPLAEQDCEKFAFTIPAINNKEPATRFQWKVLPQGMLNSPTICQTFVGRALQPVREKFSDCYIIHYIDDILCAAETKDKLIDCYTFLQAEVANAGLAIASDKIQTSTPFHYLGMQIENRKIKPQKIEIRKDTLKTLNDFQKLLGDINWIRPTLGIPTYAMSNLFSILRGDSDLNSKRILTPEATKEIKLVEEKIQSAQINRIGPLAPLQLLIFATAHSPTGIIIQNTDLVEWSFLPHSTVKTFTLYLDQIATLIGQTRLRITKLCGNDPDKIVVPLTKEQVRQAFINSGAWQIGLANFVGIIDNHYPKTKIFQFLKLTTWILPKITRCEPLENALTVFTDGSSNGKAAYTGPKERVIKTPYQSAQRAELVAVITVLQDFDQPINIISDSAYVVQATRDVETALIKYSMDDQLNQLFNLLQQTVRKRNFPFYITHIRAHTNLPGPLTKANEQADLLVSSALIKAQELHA
T2 sequence (O14746 whole entry): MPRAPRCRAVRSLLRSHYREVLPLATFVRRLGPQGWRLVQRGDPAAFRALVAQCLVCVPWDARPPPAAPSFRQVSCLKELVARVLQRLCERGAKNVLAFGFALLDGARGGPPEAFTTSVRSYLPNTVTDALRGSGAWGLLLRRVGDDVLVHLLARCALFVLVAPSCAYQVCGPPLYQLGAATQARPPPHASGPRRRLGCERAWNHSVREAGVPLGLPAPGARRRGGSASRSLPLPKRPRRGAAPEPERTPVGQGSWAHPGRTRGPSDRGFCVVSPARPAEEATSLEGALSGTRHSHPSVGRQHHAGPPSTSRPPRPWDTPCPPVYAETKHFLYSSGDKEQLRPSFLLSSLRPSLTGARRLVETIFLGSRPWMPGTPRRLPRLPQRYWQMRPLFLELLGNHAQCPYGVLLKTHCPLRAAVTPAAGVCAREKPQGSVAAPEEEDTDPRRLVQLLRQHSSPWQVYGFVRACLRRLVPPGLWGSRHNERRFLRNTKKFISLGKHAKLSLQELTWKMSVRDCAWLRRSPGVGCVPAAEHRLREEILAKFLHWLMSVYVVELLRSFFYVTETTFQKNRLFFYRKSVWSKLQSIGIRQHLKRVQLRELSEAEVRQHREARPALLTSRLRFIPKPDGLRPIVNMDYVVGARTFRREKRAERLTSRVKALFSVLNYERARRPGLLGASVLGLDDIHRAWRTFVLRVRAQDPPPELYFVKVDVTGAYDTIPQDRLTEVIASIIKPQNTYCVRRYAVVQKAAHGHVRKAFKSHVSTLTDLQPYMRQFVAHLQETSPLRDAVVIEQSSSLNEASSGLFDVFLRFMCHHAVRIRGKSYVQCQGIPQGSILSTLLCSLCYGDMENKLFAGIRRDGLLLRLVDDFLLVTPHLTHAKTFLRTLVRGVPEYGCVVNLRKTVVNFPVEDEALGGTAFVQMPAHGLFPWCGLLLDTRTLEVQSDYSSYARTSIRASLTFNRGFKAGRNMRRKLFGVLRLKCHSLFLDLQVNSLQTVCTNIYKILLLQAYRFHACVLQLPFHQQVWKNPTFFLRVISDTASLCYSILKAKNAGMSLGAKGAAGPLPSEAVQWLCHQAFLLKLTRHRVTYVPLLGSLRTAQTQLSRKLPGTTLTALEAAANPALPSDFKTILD
T2 sequence (O60832 whole entry partner): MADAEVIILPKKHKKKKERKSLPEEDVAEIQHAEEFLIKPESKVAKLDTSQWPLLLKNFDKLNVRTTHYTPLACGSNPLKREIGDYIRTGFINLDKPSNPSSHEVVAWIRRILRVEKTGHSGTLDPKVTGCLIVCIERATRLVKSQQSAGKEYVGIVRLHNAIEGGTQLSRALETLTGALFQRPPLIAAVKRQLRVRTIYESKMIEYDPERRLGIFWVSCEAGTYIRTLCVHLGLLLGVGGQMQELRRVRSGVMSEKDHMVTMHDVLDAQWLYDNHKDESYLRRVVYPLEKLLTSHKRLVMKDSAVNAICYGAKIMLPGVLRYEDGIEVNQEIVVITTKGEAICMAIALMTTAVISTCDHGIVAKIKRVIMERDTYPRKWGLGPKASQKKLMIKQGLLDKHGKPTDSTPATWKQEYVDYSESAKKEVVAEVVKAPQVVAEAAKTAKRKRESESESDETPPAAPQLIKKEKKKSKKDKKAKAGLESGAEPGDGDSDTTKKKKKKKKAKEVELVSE
T2 sequence (Q9NX24 whole entry partner): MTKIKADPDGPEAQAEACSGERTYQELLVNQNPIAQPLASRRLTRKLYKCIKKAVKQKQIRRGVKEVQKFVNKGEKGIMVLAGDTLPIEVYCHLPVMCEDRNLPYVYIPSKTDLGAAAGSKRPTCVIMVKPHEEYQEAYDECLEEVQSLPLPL
T2 sequence (Q9NPE3 whole entry partner): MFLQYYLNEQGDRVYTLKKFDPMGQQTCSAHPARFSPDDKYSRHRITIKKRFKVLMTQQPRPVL
T2 sequence (Q9NY12 whole entry partner): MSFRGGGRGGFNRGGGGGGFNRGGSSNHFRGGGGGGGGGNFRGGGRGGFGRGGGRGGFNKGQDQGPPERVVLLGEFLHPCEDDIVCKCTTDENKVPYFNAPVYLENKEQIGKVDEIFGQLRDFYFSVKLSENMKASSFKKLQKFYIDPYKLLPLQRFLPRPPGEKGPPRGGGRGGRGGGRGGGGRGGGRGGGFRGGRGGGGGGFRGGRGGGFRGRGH

| Structure (SMILES) | IC50 [1] [µM] | IC50 (human telomerase) [µM] |
| --- | --- | --- |
| CC[C@]1(COP(=O)(O)OP(=O)(O)OP(=O)(O)O)O[C@@H](n2ccc(N)nc2=O)C[C@@H]1O [44-TP] | > 10 | 25 to 50 |
| Nc1ccn([C@H]2C[C@H](O)[C@@](CCl)(COP(=O)(O)OP(=O)(O)OP(=O)(O)O)O2)c(=O)n1 [Compound 2-TP] | 17 | ≤ 1 |
| Nc1nc(=O)n([C@H]2C[C@H](O)[C@@](CCl)(COP(=O)(O)OP(=O)(O)OP(=O)(O)O)O2)cc1F [Compound 14-TP, ((2R,3S,5R)-5-(4-amino-5-fluoro-2-oxopyrimidin-1(2H)-yl)-2-(chloromethyl)-3-hydroxytetrahydrofuran-2-yl)methyl tetrahydrogen triphosphate TEA Salt] | > 10 | ≤ 1 |
| C#C[C@]1(COP(=O)(O)OP(=O)(O)OP(=O)(O)O)O[C@@H](n2ccc(N)nc2=O)[C@@H](F)[C@@H]1O [Compound 35-TP] | 0.013 | > 100 |
| Nc1ccn([C@@H]2O[C@](CCl)(COP(=O)(O)OP(=O)(O)OP(=O)(O)O)[C@@H](O)[C@@H]2F)c(=O)n1 [Compound 40-TP] | > 10 | > 100 |
| C=C[C@]1(COP(=O)(O)OP(=O)(O)OP(=O)(O)O)O[C@@H](n2ccc(N)nc2=O)C[C@@H]1O [Compound 43-TP] | 4.01 | 1 to 25 |
| Nc1nc(=O)n([C@@H]2O[C@](CCl)(COP(=O)(O)OP(=O)(O)OP(=O)(O)O)[C@@H](O)[C@@H]2F)cc1F [Compound 67-TP] | > 10 | > 100 |
